Paper PMC3626250, “Effects of Borneol on Pharmacokinetics and Tissue Distribution of Notoginsenoside R1 and Ginsenosides Rg1 and Re in Panax notoginseng in Rabbits” (Journal of Analytical Methods in Chemistry, 2013)

How the values were obtained:
[1] = system: Caco-2 cell monolayers; assay: TEER values of the Caco-2 cell monolayers; assay type: cell-based; conditions: 200 μM Borneol with 500 μM NGR1, GRg1 and GRe, Caco-2 monolayers
Experimental: In transport studies, vinblastine-selected Caco-2 cells were seeded on polycarbonate filter of transwells for 18–21 days before starting transport study, and the monolayers with the transepithelial electrical resistance (TEER) values greater than 300 Ωcm^2 were used. Caco-2 monolayers were rinsed twice with Hanks' balanced salt solution (HBSS) and preincubated in HBSS at 37°C for 30 min before starting experiments. To start the experiments, 500 μM of NGR1, GRg1, and GRe in final concentrations were added to the donor side with or without 200 μM Borneol and then incubated at 37°C. An aliquot of 0.1 mL samples were withdrawn from receiver chambers at 0, 30, 60, 90, and 120 min after the loading. After each sampling, 0.1 mL of HBSS was added to the receiver chamber to maintain a constant volume. All the experiments were performed five times in duplicate. […] During the above transport studies, the TEER values were also monitored before and at the end of each experiment. Apparent permeability coefficients (P app) were then calculated according to the following equation: (1) Papp=(dC/dt×V)/(A×C0), where dC/dt is the rate of the test compound appearing in the receiver chamber, V is the volume of the solution in the receiver chamber, A is the cell monolayer surface area, and C 0 is the initial concentration of the test compound added in the donor chamber. […]

[2] = system: Caco-2 cells; assay: MTT cytotoxicity assay toward Caco-2 cells; assay type: cell-based; conditions: chosen for transport study
Experimental: The Caco-2 cells were cultured in Dulbecco's modified Eagle's medium (DMEM) supplemented with 20% foetal bovine serum, 1% nonessential amino acids and penicillin-streptomycin, at 37°C in an atmosphere with a relative humidity of 95% and a CO2 flow of 5%. Medium was replaced every 2-3 days. When the cell monolayer reached 80% confluence, the cells were detached with a solution of 0.02% EDTA and 0.25% trypsin. The vinblastine-selected Caco-2 cells were cultivated in the presence of 10 nM vinblastine to induce P-glycoprotein (P-gp) expression. The culture medium was changed to a fresh medium without vinblastine 24 h before experiments, and the cells were used between passages 25 and 46. Prior to the transport study, cytotoxicity of NGR1, GRg1, GRe, and Borneol toward Caco-2 cells was determined using MTT assays. Noncytotoxic concentrations of 500 μM NGR1, GRg1, GRe, and 200 μM Borneol (dissolved in DMSO) were chosen for transport study.

CC1(C)C2CCC1(C)C(O)C2 (centres unmarked) [Borneol]
TEER values of the monolayers decreased reversibly to [1]: about 23% | Noncytotoxic concentration [2]: 200 µM
